Type in all cases: cell-based, human
The test system of one assay is HCT116. Kind of assay: Annexin V/PI flow cytometry apoptosis assay. The settings on record: 24 hours, p<0.05; for cell death compared with HUVEC cell line: HCT116, 1 mM. As to the method:
(§1) In this example, the apoptotic effect of exemplary peptides on cancer cells was examined by analyzing the number of apoptotic cells in HCT116 and SW480 and HUVEC cell lines before and after treatment with 1 mM of each exemplary peptide for 24 hours. Annexin V and propidium iodide (PI) staining were used to evaluate the apoptosis induced by treatment with exemplary peptides in each cell line. Stained cells may be counted by flow cytometry to calculate the percentage of apoptosis (Annexin V positive and PI negative) and necrosis percentage (Annexin V positive and […]) for each cell line.
(§2) The percentage of Annexin V positive and PI negative cells were considered early apoptosis, and the percentage of both Annexin positive and PI-positive cells was considered late apoptosis and necrosis. The sum of these two groups of cells was considered as the cell death rate.

A further assay has as its system SW480. Kind of assay: Annexin V/PI flow cytometry apoptosis assay. The settings on record: 24 hours, p<0.05; for cell death of SW480 compared with HCT116 cell line: 1 mM; for cell death compared with HUVEC cell line: SW480, 1 mM. The procedure:
as §1, §2

The test system of assay [1] is Wnt signaling pathway, HCT116 cell line. Kind of assay: Real-time PCR of LRP6 and downstream genes of the Wnt signaling pathway. The settings on record: treated against untreated. The procedure: (§3) In this example, the effect of exemplary peptides on the expression of LRP6 and downstream genes of the Wnt signaling pathway, such as β-catenin, cyclin D1, and C-MYC, was evaluated at transcription level using real-time PCR and at translation level using Western blotting. The Gapdh gene was used as the reference gene. The expression fold change of more than 2 times (treated cell against untreated cell) was defined as increasing expression, and cases with a fold change of 0.5 to 2 were unchanged, and cases with expression fold change less than 0.5 were considered as a reduction in expression.

Assay [2] relates to Wnt signaling pathway, HUVEC cell line. The assay is described as above. To be noted: treated against untreated. The procedure: as §3
Assay [3] has as its system Wnt signaling pathway, SW480 cell line. The description is as above. The settings on record: treated against untreated. The procedure:
as §3

Assay [4] deals with Wnt signaling pathway, HCT116 cell line. Kind of assay: Western blotting of LRP6 and β-catenin proteins with signal densitometry. The settings on record: HCT116, Western blot signal densitometry. The procedure:
as §3
(§4) Also, the effect of exemplary peptides on the levels of LRP6 and β-catenin proteins in the β-catenin/Wnt signaling pathway was investigated by Western blotting. Also, each protein's relative expression was determined through signal densitometry of each Western blot band.

The subject of assay [5] is Wnt signaling pathway, SW480 cell line. The description is as above. The settings on record: SW480, Western blot signal densitometry. As to the method: as §3, §4
Assay [6] deals with Wnt signaling pathway, HUVEC cell line. The description is as above. The settings on record: Western blot signal densitometry. As to the method: as §3
Also, the effect of exemplary peptides on the levels of LRP6 and β-catenin proteins in the β-catenin/Wnt signaling pathway was investigated by Western blotting. Also, each protein's relative expression was determined through signal densitometry of each Western blot band. FIG. 11A illustrates relative expression β-actin, β-catenin, and LRP6 in SW480, HCT116, and HUVEC cell lines, consistent with one or more exemplary embodiments of the present disclosure. Referring to FIG. 11A, the relative expressions of β-catenin and LRP6 in SW480 and HCT116 were higher than HUVEC as a normal cell.

Five molecules from patent US11572394B2, “Peptides for targeting LRP6-overexpressed cells” (PASTEUR INSTITUTE OF IRAN, priority 2020, dated 2023) can be followed below.

Where a SMILES comes first, the peptide text is derived from it. Bridges are numbered along the chain shown (N, C = ends). Where no end group is shown, it is not given here.

On to NSSSLSSGSGNNANGNFLTYY [Pep-1], for which the “cell death compared with HUVEC cell line” value with HCT116 is “significantly higher”. In the assay on SW480, the “cell death of SW480 compared with HCT116 cell line” value is given as “significantly higher” and the “cell death compared with HUVEC cell line” value is “significantly higher”. In assay [1], the “expression of C-MYC gene” value was “did not change”, the “expression of LRP6 gene” value is recorded as “did not change”, the “expression of cyclin D1 gene” value is on record as “did not change” and the “expression of β-catenin gene” value is on record as “did not change”. Further, in assay [2], the “expression of C-MYC gene” value is “did not change”, the “expression of LRP6 gene” value is recorded as “did not change”, the “expression of cyclin D1 gene” value is recorded as “did not change” and the “expression of β-catenin gene” value is “did not change”. Moreover, in assay [3], the “expression of C-MYC gene” value is on record as “did not change”, the “expression of LRP6 gene” value was “did not change”, the “expression of cyclin D1 gene” value was “did not change” and the “expression of β-catenin gene” value was “did not change”. Moreover, the “decrease of β-catenin protein level” value in assay [4] is “no significant effect”. The “decrease of β-catenin protein level” value in assay [5] is “no significant effect”. For the same molecule, the “effect on β-catenin protein content” value in assay [6] is reported as “no significant effect”.
For the molecule `CC[C@H](C)[C@H](NC(=O)[C@H](CCC(=O)O)NC(=O)[C@H](CC(C)C)NC(=O)CNC(=O)[C@H](Cc1c[nH]cn1)NC(=O)[C@H](CO)NC(=O)CNC(=O)[C@H](CCCCN)NC(=O)[C@H](CCCNC(=N)N)NC(=O)[C@H](CCCNC(=N)N)NC(=O)[C@H](Cc1c[nH]cn1)NC(=O)[C@H](CCCCN)NC(=O)[C@@H](NC(=O)[C@H](CS)NC(=O)[C@@H](NC(=O)[C@@H](N)CCC(N)=O)C(C)C)[C@@H](C)O)C(=O)N[C@@H](Cc1ccccc1)C(=O)N[C@@H](CCC(N)=O)C(=O)N[C@@H](CCCNC(=N)N)C(=O)N[C@@H](CS)C(=O)N[C@@H](Cc1ccc(O)cc1)C(=O)O` [Pep-2] (H-QVCTKHRRKGSHGLEIFQRCY-OH; N-terminus and C-terminus assumed), the “cell death rate of HCT116 compared with SW480” value in the assay with HCT116 (1 mM) was “significantly higher”. Further, the “cell death compared with HUVEC cell line” value in the assay with HCT116 and with SW480 was “significantly higher” in each case. The “expression of C-MYC gene” value in assay [1] is given as “reduced”; in assay [2] it was “did not change”; in assay [3], “reduced”. Moreover, the “expression of LRP6 gene” value in assay [1], in assay [2] and in assay [3] was “did not change” each time. For the same molecule, the “expression of cyclin D1 gene” value in assay [1] was “reduced”; in assay [2] it was “did not change”; in assay [3] it was “reduced”. In addition, the figures for the “expression of β-catenin gene” value in assay [1], in assay [2] and in assay [3] were “reduced”, “did not change” and “reduced”, respectively. The “decrease of β-catenin protein level” value in assay [4] and in assay [5] was 20% in each case.
`CC[C@H](C)[C@@H]1NC(=O)[C@H](CCCCN)NC(=O)[C@H](CO)NC(=O)[C@H](Cc2c[nH]c3ccccc23)NC(=O)[C@H](Cc2ccccc2)NC(=O)[C@H](Cc2c[nH]cn2)NC(=O)[C@H](CCCNC(=N)N)NC(=O)[C@H](C)NC(=O)[C@H](CS)NC(=O)[C@@H](N)CSSC[C@@H](C(=O)O)NC1=O` [Pep-4] (H-CCARHFWSKIC-OH; disulfide 1-11): in the assay with SW480, the “cell death of SW480 compared with HCT116 cell line” value is reported as “significantly higher” and the “cell death compared with HUVEC cell line” value is “significantly higher”. In assay [1], the “expression of C-MYC gene” value is listed as “reduced”, the “expression of LRP6 gene” value is “did not change”, the “expression of cyclin D1 gene” value is “reduced” and the “expression of β-catenin gene” value is “reduced”. Also, in assay [2], the “expression of C-MYC gene” value is given as “have not changed”, the “expression of LRP6 gene” value was “have not changed”, the “expression of cyclin D1 gene” value is “have not changed” and the “expression of β-catenin gene” value was “have not changed”. In assay [3], the “expression of C-MYC gene” value is reported as “reduced”, the “expression of LRP6 gene” value is listed as “did not change”, the “expression of cyclin D1 gene” value is recorded as “reduced” and the “expression of β-catenin gene” value is reported as “reduced”. Besides, the “decrease of β-catenin protein level” value in assay [4] is on record as 20%. Further, the “decrease of β-catenin protein level” value in assay [5] turned out to be 20%.
For NGYITFQDGNDYFRFPLNN [Pep-3], in assay [1], the “expression of C-MYC gene” value was “did not change”, the “expression of LRP6 gene” value was “did not change”, the “expression of cyclin D1 gene” value was “did not change” and the “expression of β-catenin gene” value is “did not change”. Also, in assay [2], the “expression of C-MYC gene” value is reported as “did not change”, the “expression of LRP6 gene” value is recorded as “did not change”, the “expression of cyclin D1 gene” value is on record as “did not change” and the “expression of β-catenin gene” value is “did not change”. Also, in assay [3], the “expression of C-MYC gene” value was “did not change”, the “expression of LRP6 gene” value is “did not change”, the “expression of cyclin D1 gene” value is “did not change” and the “expression of β-catenin gene” value is “did not change”. The “decrease of β-catenin protein level” value in assay [4] was “no significant effect”. For the same molecule, the “decrease of β-catenin protein level” value in assay [5] is given as “no significant effect”. The “effect on β-catenin protein content” value in assay [6] is “no significant effect”.

B1: Wnt5a: Wnt5a, effective ligand for non-canonical Wnt signaling pathway, positive control (protein, UniProt P41221 62-380, looked up)
Protein Wnt-5a: IIGAQPLCSQLAGLSQGQKKLCHLYQDHMQYIGEGAKTGIKECQYQFRHRRWNCSTVDNTSVFGRVMQIGSRETAFTYAVSAAGVVNAMSRACREGELSTCGCSRAARPKDLPRDWLWGGCGDNIDYGYRFAKEFVDARERERIHAKGSYESARILMNLHNNEAGRRTVYNLADVACKCHGVSGSCSLKTCWLQLADFRKVGDALKEKYDSAAAMRLNSRGKLVQVNSRFNSPTTQDLVYIDPSPDYCVRNESTGSLGTQGRLCNKTSEGMDGCELMCCGRGYDQFKTVQTERCHCKFHWCCYVKCKKCTEIVDQFVCK
Turning to B1, in assay [1], the “expression of C-MYC gene” value is reported as “did not change”, the “expression of LRP6 gene” value is “did not change”, the “expression of cyclin D1 gene” value was “did not change” and the “expression of β-catenin gene” value is “did not change”. Besides, in assay [2], the “expression of C-MYC gene” value is on record as “did not change”, the “expression of LRP6 gene” value was “did not change”, the “expression of cyclin D1 gene” value is reported as “did not change” and the “expression of β-catenin gene” value is “did not change”. For the same molecule, in assay [3], the “expression of C-MYC gene” value is recorded as “did not change”, the “expression of LRP6 gene” value is given as “did not change”, the “expression of cyclin D1 gene” value is given as “did not change” and the “expression of β-catenin gene” value is recorded as “did not change”.
